Measured values from US20230414607A1, “METHODS OF TREATMENT” (BOW RIVER LLC, priority 2017, published 2023).
Read-outs that look alike come from different tables or passages of the source.

Key:
[1] = Example 2: posaconazole pharmacokinetics in normal-weight and obese subjects; format: in vivo, human; conditions: for Steady-state concentration, Mean ± SD: posaconazole 300 mg once daily; for half-life: human, plasma, oral
Method: On study Day 4, subjects received two doses of posaconazole (300 mg BID). On the mornings of Days 5-17, they received posaconazole 300 mg once daily. As posaconazole is to be taken with food, subjects were fed a continental breakfast in the clinical research unit after receiving posaconazole and prior to discharge from the unit. Venous blood samples were drawn into EDTA containing tubes prior to the posaconazole dose on Days 4, 7, 11, and prior to the lurasidone dose on Days 14, 20, 23, 26 and 30. An additional blood sample was taken 5 hours after posaconazole dosage on Day 17, for approximate determination of maximum posaconazole plasma concentrations, and on Day 33. Samples were centrifuged and the plasma was separated and frozen at −70° C. until the time of assay.
Analytic Methods. All bioassay analyses were performed by Keystone Bioanalytical, North Wales, PA. For analysis of posaconazole, the internal standard (posaconazole-D4) was added to the biological samples. Plasma samples were precipitated using formic acid in acetonitrile and isolated using a Phree phospholipid removal tube. An aliquot of the sample was injected onto a high-pressure liquid chromatograph with tandem mass spectrometry triple quadrupole mass spectrometer (SCIEX API-5500). The analytical column was a Unison CK-218, 3 μm particle size HPLC column (50×2 mm) from Imtakt USA (Portland, OR). The mobile phase consisted of an aqueous component (0.25% formic acid and 10 mM ammonium formate in water) and an organic component (0.1% formic acid in acetonitrile) and was delivered by gradient, with the organic component going from 35% to 100%. The m/z transitions monitored were 701.6>614.4 for posaconazole and 705.6>618.4 for the internal standard. The calibration curve ranged from 1-1000 ng/mL (8 concentrations in duplicate).
Pharmacokinetic and Statistical Methods. […] The apparent washout half-life of posaconazole was calculated by log-linear regression analysis starting with the plasma concentration on Day 20 and ending with the last non-zero value. Differences between normal-weight and obese cohorts were evaluated by Student's t-test for independent groups. The relation between measures of body habitus and posaconazole washout half-life for individual subjects was evaluated by linear regression analysis.

[2] = Noxafil label, cited from earlier work
[3] = Pooled posaconazole steady-state concentration and elimination half-life, clinical studies BOW-001 and BOW-002; format: in vivo, human; conditions: for half-life: human, in vivo
From the text: The two clinical studies used the same protocol to measure posaconazole's elimination half-life, allowing for the data for normal patients from each study to be combined (“All Normal”) and data for obese patients from each study to be combined (“All Obese”).

CYP3A4 = CYP3A4 (Homo sapiens, UniProt P08684); conditions: human
Chain of CYP3A4 (P08684 whole entry): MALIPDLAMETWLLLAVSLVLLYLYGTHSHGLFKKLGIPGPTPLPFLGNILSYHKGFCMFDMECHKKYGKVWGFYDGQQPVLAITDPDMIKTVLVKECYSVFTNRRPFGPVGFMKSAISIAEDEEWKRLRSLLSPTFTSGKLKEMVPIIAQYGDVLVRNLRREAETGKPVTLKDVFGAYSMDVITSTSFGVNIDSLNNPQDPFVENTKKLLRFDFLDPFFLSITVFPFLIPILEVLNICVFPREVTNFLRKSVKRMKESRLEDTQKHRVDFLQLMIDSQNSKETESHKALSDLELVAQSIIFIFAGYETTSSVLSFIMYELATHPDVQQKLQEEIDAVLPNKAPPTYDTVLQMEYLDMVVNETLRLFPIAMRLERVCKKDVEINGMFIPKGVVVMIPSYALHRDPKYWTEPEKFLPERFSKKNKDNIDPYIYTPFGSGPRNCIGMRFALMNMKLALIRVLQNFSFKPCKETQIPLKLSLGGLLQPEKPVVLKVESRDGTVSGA
From the text: Blood plasma levels may be described in various ways, such as area under the plasma concentration curve (AUC) and peak plasma concentration (Cmax). Baseline levels and posaconazole interaction levels for CYP3A4 substrate drugs may be compared using the geometric mean ratio (GMR) of AUC and Cmax. […] GMR is the standard industry and regulatory method for assessing the ratio of change of a pharmacokinetic variable (such as AUC) relative to its own baseline value (e.g., in a patient that was not treated with posaconazole). Once the level of substrate drug (AUC or Cmax) during co-administration with posaconazole and a CYP3A4 substrate drug is known, a function can be derived using conventional pharmacological methods to estimate how the AUC or plasma level of the CYP3A4 substrate drug is expected to decay over time after stopping administration of posaconazole. Such a function can be used to provide a plot of the decay GMR of AUC (or Cmax) of the CYP3A4 substrate drug versus time due to its interaction with posaconazole, based on the stated half-life of posaconazole.
The expected DDI decay curve can also be calculated for Cmax GMR by substituting Cmax during co-administration for AUC during co-administration in equation 1. As used herein, “expected levels” and “predicted levels” and the like, refer to the AUC or Cmax GMR values calculated using equation 1.

[4] = Example 3: posaconazole posttreatment washout; format: in vivo; conditions: human, plasma, oral, 300 mg
[5] = Plasma posaconazole concentrations and washout half-life in normal-weight and obese subjects; format: in vivo, human; conditions: for Trough (predose) steady-state posaconazole concentration: Day 15, posaconazole 300 mg delayed-release tablet daily; for half-life: human, plasma, oral, from day 15, read-out: Postdosage washout half-life of posaconazole (converted)
Method: On study day 2, subjects received posaconazole (300 mg delayed-release tablet twice a day), and on the mornings of days 3-15, subjects received posaconazole (300 mg delayed-release tablet daily). Because posaconazole is to be taken with food,^6 subjects were fed a continental breakfast in the clinical research unit after receiving posaconazole and before discharge from the unit. […] One additional blood sample was taken 5 hours after the posaconazole dose on day 15 for approximate determination of maximum plasma posaconazole concentrations. Samples were centrifuged, and the plasma was separated and frozen at −70° C. until the time of assay of plasma posaconazole concentrations.
Analytic Methods. All bioassay analysis was performed by Keystone Bioanalytical (North Wales, PA). For analysis of posaconazole, the internal standard (posaconazole-d4) was added to the biological samples. Plasma samples were precipitated using formic acid in acetonitrile and isolated using a Phree phospholipid removal tube, and then an aliquot of the sample was injected onto a high-pressure liquid chromatography with tandem mass spectrometry triple quadrupole mass spectrometer (Sciex API-5500). The analytical column was a Unison CK-218, 3 μm particle size HPLC column (50×2 mm) from Imtakt USA (Portland, OR). The mobile phase consisted of an aqueous component (0.25% formic acid and 10 mmol/L ammonium formate in water) and an organic component (0.1% formic acid in acetonitrile) and was delivered by gradient, with the organic component going from 35% to 100%. The m/z transitions monitored were 701.6→614.4 for posaconazole and 705.6→618.4 for the internal standard. The calibration curve ranged from 1 to 1000 ng/mL (8 concentrations in duplicate). The interassay precision of this method (as percentage coefficient of variance) was 4.28% to 7.14%, and the interassay accuracy (as percentage relative error) was […] to 3.12%.
For each subject, the predose plasma posaconazole concentration on study day 15 was used as a steady-state concentration. The apparent washout half-life of posaconazole was calculated by log-linear regression analysis starting with the plasma concentration on day 15 and ending with the last nonzero value. Differences between normal-weight and obese cohorts were evaluated by Student t-test for independent groups.

CC[C@@H]([C@H](C)O)n1ncn(-c2ccc(N3CCN(c4ccc(OC[C@@H]5CO[C@@](Cn6cncn6)(c6ccc(F)cc6F)C5)cc4)CC3)cc2)c1=O [posaconazole]
Steady-state concentration, Mean ± SD ([1]; Normal): 2377 ± 1188 ng/mL
Steady-state concentration, Mean ± SD ([1]; Obese): 1462 ± 649 ng/mL
half-life ([1]; Normal, read-out: Washout half-life, Mean ± SD (converted)): 31 h
half-life ([1]; Obese, read-out: Washout half-life, Mean ± SD (converted)): 53 h
half-life ([1]; controls (normal-weight), read-out: Mean washout half-life (converted)): 30.7 h
half-life ([1]; obese group, read-out: Mean washout half-life (converted)): 52.6 h
half-life ([1]; two obese subjects, read-out: very long half-life values (converted)): 121 h
posaconazole half-life ([2]; after administration of posaconazole oral suspension): 31 to 37 h
posaconazole half-life ([2]; after dosing with posaconazole injection): about 24 hours
posaconazole half-life ([2]; patients with mild hepatic impairment): 39 h
posaconazole half-life ([2]; patients with moderate hepatic impairment): 27 h
posaconazole half-life ([2]; patients with normal hepatic function): 27 h
posaconazole half-life ([2]; patients with severe hepatic impairment): 43 h
Css, Mean ([3]; All Normal (pooled)): 2864 ng/mL
Css, Mean ([3]; All Obese (pooled)): 1860 ng/mL
Css, Mean ([3]; BOW-001 Normal): 3071 ng/mL
Css, Mean ([3]; BOW-001 Obese): 2258 ng/mL
Css, Mean ([3]; BOW-002 Normal): 2514 ng/mL
Css, Mean ([3]; BOW-002 Obese): 1462 ng/mL
half-life ([3]; All Normal (pooled), normal weight patients, read-out: t1/2, Mean (elimination half-life) (converted)): 33.6 h
half-life ([3]; All Obese (pooled), obese patients, read-out: t1/2, Mean (elimination half-life) (converted)): 58.3 h
half-life ([3]; BOW-001 Normal, read-out: t1/2, Mean (converted)): 35.7 h
half-life ([3]; BOW-001 Obese, read-out: t1/2, Mean (converted)): 64.5 h
half-life ([3]; BOW-002 Normal, read-out: t1/2, Mean (converted)): 30.9 h
half-life ([3]; BOW-002 Obese, read-out: t1/2, Mean (converted)): 52.5 h
Kel=ln(2)/(31 hours/24 hours) (CYP3A4): about 0.5366
half-life ([4]; normals): 36 h
half-life ([4]; obese subjects): 64 h
Trough (predose) steady-state posaconazole concentration ([5]; normal-weight subjects): 3071 ± 1422 ng/mL
Trough (predose) steady-state posaconazole concentration ([5]; obese subjects): 2258 ± 952 ng/mL
half-life ([5]; normal-weight subjects): 35.8 h
half-life ([5]; obese subjects): 64.3 h
Time posaconazole plasma concentrations persisted after stopping treatment ([5]; most subjects): at least 2 weeks
